# Like-named read-outs stand apart in the source and are kept apart here.
# Tests used:
# [1] = tested on: HIV 1 virus with the corresponding RT modification; design: key: S = sensitive; L = Low level resistance (2–10 times increase in inhibitory dose); I = Intermediate resistance (10–100 times increase); H = High level resistance (>100 times increase); conditions: phenotype data from literature, cited from earlier work
# [2] = target: T1, recombinant HIV 1 RT wild type (Human immunodeficiency virus type 1 group M subtype B, UniProt P04585); assay: Influence of the amount of RT used in the drug susceptibility tests (AZT-TP); assay type: biochemical
# T1 construct: This variation was maximal for wild type RT; made in house
# [3] = tested on: recombinant HIV 1 RT M41L/T69S-SS/L210W/R211K/L214F/T215Y; conditions: Recombinant RT control T69S→SS; compared to wild type control RT
# Source text: (§2) Regrettably an efficient phosphorolysis reaction is promptly reflected by a decrease in polymerization velocity and as a consequence also a decrease in detection sensitivity. Therfore this assay require more RT activity, compared to the corresponding assay for the NNRTIs.
# [4] = target: recombinant HIV 1 RT M41L/T69S-SS/L210W/R211K/L214F/T215Y (Human immunodeficiency virus type 1 group M subtype B, UniProt P04585, INS655SS/L797W/L801F/M628L/R798K/T656S/T802Y); assay: biochemical
# Source text: as §2
# [5] = target: recombinant HIV 1 RT T215Y (Human immunodeficiency virus type 1 group M subtype B, UniProt P04585, T802Y); assay: RT inhibition assay for dT analogues (Chain-termination reaction mixture)
# Source text: as §2
# [6] = target: recombinant HIV 1 RT wild type HxB2 (Human immunodeficiency virus type 1 group M subtype B, UniProt P04585); assay: as above
# [7] = target: T2, recombinant HIV 1 RT wild type BH10 (Human immunodeficiency virus type 1 group M subtype B, UniProt P03366); assay: as above; conditions: for fold increase of IC50: Recombinant RT control wild type RT (Table 4)
# [8] = target: T3, HIV RT recovered from patient plasma (Human immunodeficiency virus type 1, UniProt P03366); assay: Susceptibility to AZT-TP and d4T-TP using plasma derived RTs (Chain-termination reaction mixture); conditions: 5 fg/well
# Experimental: (§3) • 1) Label the 4.5 ml plastic tubes to be used. Place them in a Nalgene box. Add 1 ml of sample (e.g. EDTA plasma from HIV infected individuals) to each labelled tube. Add 100 μl of a 66 mM solution of 5,5′-dithiobis-(2-nitrobenzoic acid) in buffered water, vortex and incubate the samples for one hour at room temperature.
# (§4) The activity of the free plasma enzymes is destroyed during this procedure while the enzymes contained within the virions remain intact. The virions can then be purified from 5,5′-dithiobis-(2-nitrobenzoic acid), enzyme activity blocking antibodies and other substances that may interfere with quantification of viral RT by several separation procedures. The protocol below is based on the use of Fractogel® EMD TMAE Hicap gel. • 2) Suspend the separation gel carefully and transfer 1500 μl gel slurry to each sample pretreatment tube. • 3) Incubate the samples with the gel slurry for 90 minutes at room temperature with the tubes lying down horizontally on an orbital shaker. • 4) Label the desired amount of 10 ml plastic mini columns to identify the samples being analyzed. Mount the columns in a column washing device i.e. a Supelco Visiprep solid phase extraction vacuum manifold. Transfer the contents in the binding tubes to their corresponding columns. Before transfer vortex the tube briefly to evenly distribute the gel. • 5) When all the columns are filled, apply the vacuum and suck the gels dry. Turn off the vacuum and start the washing by filling each column with 9 ml buffer A. When all columns have been filled, apply the vacuum and suck the gels dry. • 6) Repeat step 5 three more times, giving a total of four washes. Suck the gels dry after each wash. After sucking the gels dry after the fourth wash, turn off the vacuum and proceed to step 7. • The washing step removes unbound RT blocking antibodies and 5,5′-dithiobis-(2-nitrobenzoic acid) from the system. • 7) Add to all dry gels 9 ml of conditioning buffer (B). After one minute apply vacuum and suck the gels dry. • 8) Repeat step 7. Before turning off the vacuum check that all conditioning buffer (B) has been removed from all gels. • 9) Lift off the upper part of the column wash device. Mount the tube holder with the labelled tubes into a clean container. Refit the upper part of the device. Control that the small tubings from each column go down in their corresponding tubes. • 10) Add 600 μl lysis buffer (C) to each column. Let the buffer stand in the column for five minutes. Then apply the vacuum slowly and suck the gels dry. This will in each tube give approximately 600 μl of virus lysate from the connected gel.
# (§5) The RT activity recovered in the lysates from step 10 are essentially free from RT blocking antibodies, drugs and cellular polymerase activity, and can be quantified with a sensitive RT activity assay, i.e. the Cavidi HS-kit Lenti RT, which is based on the method described by Ekstrand et al [7]. 25 μl lysate obtained according to the current protocol is sufficient for determination of the RT activity in the sample. The Remaining 575 μl sample should be frozen at −70° C. or below for later use in the drug sensitivity test.
# [9] = target: HIV RT recovered from patient plasma (UniProt P04585, K657R/L797S, species not given); assay: as above; conditions: plasma RT of patient code 1030 (K70R, L210S); 5 fg/well
# [10] = target: HIV RT recovered from patient plasma (UniProt P04585, K690N/V695H, species not given); assay: as above; conditions: plasma RT of patient code 2098; 5 fg/well
# [11] = target: HIV RT recovered from patient plasma (UniProt P04585, M628L/E631D/D654N/A685G/V705I/Y768C/L797W/T802Y, species not given); assay: as above; conditions: plasma RT of patient code 656 (resensitising 181C); 5 fg/well
# [12] = target: HIV RT recovered from patient plasma (UniProt P04585, T656N/L687I/K690N, species not given); assay: as above; conditions: plasma RT of patient code 622; 5 fg/well
# [13] = tested on: HIV RT recovered from patient plasma; assay: as above; conditions: compared to wild type control RT
# Experimental: as §3, §4, §5
# [14] = tested on: HIV 1 virus with the corresponding RT modification; design: key: RS = the mutations gives re-sensitation of resistant virus; S = sensitive; L = Low level resistance; I = Intermediate resistance; H = High level resistance; conditions: phenotype data from literature, cited from earlier work
# [15] = tested on: HIV 1 virus with the corresponding RT modification; design: key: S = sensitive; L = Low level resistance (2–10 times increase in inhibitory dose); I = Intermediate resistance (10–100 times increase); H = High level resistance (>100 times increase); conditions: dT analogues, phenotype data from literature, cited from earlier work
# [16] = target: recombinant HIV 1 RT K103N (Human immunodeficiency virus type 1 group M subtype B, UniProt P03366, K702N); assay: RT inhibition assay for non-nucleoside inhibitors (modified HS Lenti RT assay, RT Reaction mixture); assay type: biochemical; conditions: 1.7 fg/well, 19 hours, read-out: IC50 of indicated inhibitor in RT assay
# Source text: (§1) As template for the mutations was used the pETRT expression vector, which was constructed from the BH10 isolate.
# [17] = target: recombinant HIV 1 RT L100I (Human immunodeficiency virus type 1 group M subtype B, UniProt P03366, L699I); assay: as above; assay type: biochemical; conditions: 1.7 fg/well, 19 hours, read-out: IC50 of indicated inhibitor in RT assay
# Source text: as §1
# [18] = target: recombinant HIV 1 RT L100I/K103N (Human immunodeficiency virus type 1 group M subtype B, UniProt P03366, K702N/L699I); assay: as above; assay type: biochemical; conditions: 1.7 fg/well, 19 hours, read-out: IC50 of indicated inhibitor in RT assay
# Source text: as §1
# [19] = target: T2, recombinant HIV 1 RT wild type BH10; assay: as above; assay type: biochemical; conditions: 1.7 fg/well, 19 hours, read-out: IC50 of indicated inhibitor in RT assay
# Source text: as §1
# [20] = target: T3, HIV RT recovered from patient plasma; assay: Susceptibility to NNRTIs using plasma derived RTs; assay type: biochemical, HIV-1; conditions: 1.7 fg/well
# Source text: Place them in a Nalgene box.
# Suck the gels dry after each wash. […] Refit the upper part of the device.
# [21] = IC50, plasma RT of patient code 48
# [22] = IC50, plasma RT of patient code 160
# [23] = IC50, plasma RT of patient code 181
# [24] = IC50, plasma RT of patient code 662
# [25] = IC50, plasma RT of patient code 807
# [26] = IC50, plasma RT of patient code 3507
# [27] = virus with M41L/T69S-SS/L210W/R211K/L214F/T215Y
compound,measurement,setting,value
"O=C1Nc2ccc(Cl)cc2C(C#CC2CC2)(C(F)(F)F)O1 (single isomer, unassigned; (-)) [Efavirienz, (−)6-chloro-4-cyclopropylethynyl-4-trifluoromethyl-1,4-dihydro-2H-3,1-benzoxazin-2-one]",Sensitivity of the corresponding virus,[1]; virus with K103N,H (H = High level resistance (>100 times increase))
same,Sensitivity of the corresponding virus,[1]; virus with L100I/K103N,H (H = High level resistance (>100 times increase))
same,Sensitivity of the corresponding virus,[1]; virus with L100I,I (I = Intermediate resistance (10–100 times increase))
same,Sensitivity of the corresponding virus,"[1]; wild type BH10, NNRTIs",S
same,Sensitivity of the corresponding virus,"[1]; wild type HxB2, NNRTIs",S
"Cc1cn(C2CC(N=[N+]=[N-])C(COP(=O)(O)OP(=O)(O)OP(=O)(O)O)O2)c(=O)[nH]c1=O (stereo not shown) [AZT-TP, 3′-azido-2′,3′-deoxythymidine triphosphate]",IC50,[2]; RT amount 2 fg/well,130 nM
same,IC50,[2]; RT amount 162 fg/well,220 nM
same,fold increase of IC50,[3],25 fold
same,IC50,[4],4000 nM
same,IC50,[5],690 nM
same,IC50,[6],190 nM
same,IC50,[7],160 nM
same,fold increase of IC50,[7],1.0 fold
same,IC50,[8]; [21],470 nM
same,IC50,[8]; [22],270 nM
same,IC50,[8]; [23],500 nM
same,IC50,[8]; [24],500 nM
same,IC50,[8]; [25],500 nM
same,IC50,[8]; [26],130 nM
same,IC50,[9],3200 nM
same,IC50,[10],350 nM
same,IC50,[11],1250 nM
same,IC50,[12],230 nM
same,fold increase of IC50,[13]; patient code 48,2.9 fold
same,fold increase of IC50,[13]; patient code 160,1.7 fold
same,fold increase of IC50,[13]; patient code 181,3.1 fold
same,fold increase of IC50,[13]; patient code 393,20 fold
same,fold increase of IC50,[13]; patient code 622,1.4 fold
same,fold increase of IC50,[13]; patient code 656,7.8 fold
same,fold increase of IC50,[13]; patient code 662,3.1 fold
same,fold increase of IC50,[13]; patient code 807,3.1 fold
same,fold increase of IC50,[13]; patient code 1030,20 fold
same,fold increase of IC50,[13]; patient code 1144,3.5 fold
same,fold increase of IC50,[13]; patient code 1320,8.3 fold
same,fold increase of IC50,[13]; patient code 2098,2.2 fold
same,fold increase of IC50,[13]; patient code 3507,0.8 fold
Cc1cn([C@H]2C[C@H](N=[N+]=[N-])[C@@H](CO)O2)c(=O)[nH]c1=O [AZT],Sensitivity of the corrsponding virus,[14]; [27],H
same,Sensitivity of the corrsponding virus,[14]; virus with T215Y,I
same,Sensitivity of the corrsponding virus,[15]; wild type HXB2,S
same,Sensitivity of the corrsponding virus,[15]; wildtype BH 10,S
"CC(C)Nc1cccnc1N1CCN(C(=O)c2cc3cc(NS(C)(=O)=O)ccc3[nH]2)CC1 [Delaviridine, 1-(5-methanesulphonamido-1H-indol-2-yl-carbonyl)-4-[3-(1-methylethyl-amino)pyridinyl]piperazine monomethane sulphonate]",IC50,[16],3000 nM
same,IC50,[17],9500 nM
same,IC50,[18],> 100000 nM
same,IC50,[19],500 nM
same,IC50,"[20]; IC50, plasma RT of patient code 1177",4540 nM
same,IC50,"[20]; IC50, plasma RT of patient code 1412",3600 nM
same,IC50,"[20]; IC50, plasma RT of patient code 1424",8210 nM
same,IC50,"[20]; IC50, plasma RT of patient code 1572",9540 nM
same,IC50,"[20]; IC50, plasma RT of patient code 1639",12700 nM
same,IC50,"[20]; IC50, plasma RT of patient code 1885",8970 nM
same,IC50,[20]; plasma RT of patient code 3980 (V179T/A/I),7510 nM
"Cc1ccnc2c1NC(=O)c1cccnc1N2C1CC1 [Nevirapin, 11-cyclopropyl-5,11-dihydro-4-methyl-6H-dipyrido[3,2-b:2′,3′-f][1,4]diazepin-6-one]",Sensitivity of the corresponding virus,[1]; virus with K103N,H (H = High level resistance (>100 times increase))
same,Sensitivity of the corresponding virus,[1]; virus with L100I/K103N,H (H = High level resistance (>100 times increase))
same,Sensitivity of the corresponding virus,[1]; virus with L100I,L (L = Low level resistance (2–10 times increase in inhibitory dose))
same,Sensitivity of the corresponding virus,"[1]; wild type BH10, NNRTIs",S
same,Sensitivity of the corresponding virus,"[1]; wild type HxB2, NNRTIs",S
"Cc1cn([C@H]2C=C[C@@H](COP(=O)(O)OP(=O)(O)OP(=O)(O)O)O2)c(=O)[nH]c1=O [d4T-TP, 2′,3′-didehydro-3′-deoxythymidine triphosphate]",fold increase of IC50,[3],15 fold
same,IC50,[4],490 nM
same,IC50,[5],150 nM
same,IC50,[6],50 nM
same,IC50,[7],33 nM
same,fold increase of IC50,[7],1.0 fold
same,IC50,[8]; [21],85 nM
same,IC50,[8]; [22],43 nM
same,IC50,[8]; [23],49 nM
same,IC50,[8]; [24],65 nM
same,IC50,[8]; [25],70 nM
same,IC50,[8]; [26],20 nM
same,IC50,[9],1100 nM
same,IC50,[10],48 nM
same,IC50,[11],170 nM
same,IC50,[12],28 nM
same,fold increase of IC50,[13]; patient code 48,2.6 fold
same,fold increase of IC50,[13]; patient code 160,1.3 fold
same,fold increase of IC50,[13]; patient code 181,1.5 fold
same,fold increase of IC50,[13]; patient code 393,12.7 fold
same,fold increase of IC50,[13]; patient code 622,0.8 fold
same,fold increase of IC50,[13]; patient code 656,5.2 fold
same,fold increase of IC50,[13]; patient code 662,2.0 fold
same,fold increase of IC50,[13]; patient code 807,2.7 fold
same,fold increase of IC50,[13]; patient code 1030,33 fold
same,fold increase of IC50,[13]; patient code 1320,19.6 fold
same,fold increase of IC50,[13]; patient code 2098,1.5 fold
same,fold increase of IC50,[13]; patient code 3507,0.6 fold
Cc1cn([C@H]2C=C[C@@H](CO)O2)c(=O)[nH]c1=O [d4T],Sensitivity of the corrsponding virus,[14]; [27],H
same,Sensitivity of the corrsponding virus,[14]; virus with T215Y,L
same,Sensitivity of the corrsponding virus,[15]; wild type HXB2,S
same,Sensitivity of the corrsponding virus,[15]; wildtype BH 10,S

# From US7875422B2, “Viral drug susceptibility testing” (Cavidi AB, priority 2001, dated 2011)
